Measured values as given in publication PMC13242511, “Disrupting Notch signalling by a small molecule inhibiting dihydroorotate dehydrogenase activity” (Scientific Reports, 2026).

Experiments:
Assay type in all cases: cell-based
[1] = test system: Notch signalling; assay: Notch reporter assay (12xCSL firefly luciferase / renilla luciferase, HEK293T Notch1ΔE reporter cell line clone #A1-11); parameters: Confirmation screen: unit not given here; conditions: for inhibitor ratio in % of DMSO in 3 point DR: 3-point DR confirmation screen, Notch reporter assay
Outline: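 Compounds at two-fold concentration in 10 µl medium were brought to one-fold by adding 10 µl holding 4000 Notch reporter cells (clone #A1-11) per well of a 384-well plate. After 24 h, Promega dual-GLO firefly and renilla luciferase were read on a SpectraMaxi3. Dose-response curves were fitted with a log(inhibitor) vs. response variable-slope model.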

[2] = target: γ-secretase complex (Homo sapiens, UniProt P49768); assay: APP-C99 counter assay (GSI reporter assay); conditions: for 3p-DR in % of DMSO counter: APP-C99 counter assay
Outline: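 Cells transfected with APP-C99 firefly luciferase reporter plus renilla normalization plasmid, seeded 24 h later onto compound plates and cultured 24 h. Dual luciferase read in triplicate per concentration; IC50 from variable-slope log(inhibitor) fit, with AUC also calculated from dose–response curves.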

[3] = test system: Notch signalling; assay: Notch reporter assay (12xCSL firefly luciferase / renilla luciferase, HEK293T Notch1ΔE reporter cell line clone #A1-11); conditions: 24 h, unit from Fig. 2 legend
[4] = 10 µM, sheet conf vs counter 10 µM, same values as 3-point DR confirmation screen
[5] = 25 µM, Notch reporter 3-point dose-confirmation assay, sheet "conf vs counter 25 µM"
[6] = 10 µM, sheet conf vs counter 10 µM
[7] = 25 µM, sheet "conf vs counter 25 µM", same values given as % of DMSO in sheet "3p-DR in % of DMSO counter"

Row | SMILES | inhibitor ratio in % of DMSO in 3 point DR ([1]; 10µM) | Confirmation screen [1, 4] | inhibitor ratio in % of DMSO in 3 point DR ([1]; 25µM) | Confirmation screen [1, 5] | inhibitor ratio in % of DMSO in 3 point DR ([1]; 1,25µM) | 3p-DR in % of DMSO counter ([2]; 10µM) | Counter screen (Hek APP-C99) [2, 6] | 3p-DR in % of DMSO counter ([2]; 25µM) | Counter screen (Hek APP-C99) [2, 7] | 3p-DR in % of DMSO counter ([2]; 1,25µM) | Primary screen at 10 µM (Notch reporter signal) [3]
1 | Fc1cc(CN2CCC3(CC2)OCCc2c3[nH]c3ccc(Br)cc23)cc(F)c1F [CBK039943] | 83.6 % of DMSO | 83.6 | 75.1 % of DMSO | 75.1 | 111.8 % of DMSO | 118.1 % of DMSO | 118.1 | 117.4 % of DMSO | 117.4 | 92.8 % of DMSO | 63.6 % of DMSO
2 | O=C(NC(Nc1cccc(C(F)(F)F)c1)C(=O)c1ccccc1)c1ccc(Cl)cc1 (stereo not drawn) [CBK263585] | 59.9 % of DMSO | 59.9 | 46.6 % of DMSO | 46.6 | 104.0 % of DMSO | 79.4 % of DMSO | 79.4 | 84.5 % of DMSO | 84.5 | 97.7 % of DMSO | 61.4 % of DMSO
3 | CC(=O)Nc1cccc(-c2ccc(Nc3cccc(N(C)C)c3)nc2)c1 [CBK036829] | 28.3 % of DMSO | 28.3 | 23.9 % of DMSO | 23.9 | 30.6 % of DMSO | 40.4 % of DMSO | 40.4 | 38.9 % of DMSO | 38.9 | 49.9 % of DMSO | 22.4 % of DMSO
4 | NC(=O)c1c(NC(=S)NC(NC(=O)c2ccccc2)C(Cl)(Cl)Cl)sc2c1CCCC2 (stereo not drawn) [CBK261048] | 66.7 % of DMSO | 66.7 | 49.9 % of DMSO | 49.9 | 102.1 % of DMSO | 72.6 % of DMSO | 72.6 | 66.8 % of DMSO | 66.8 | 111.1 % of DMSO | 67.0 % of DMSO
5 | NC(=O)c1[nH]nc(C2OC(CO)C(O)C2O)c1O (stereo not drawn) [CBK201236] | 67.4 % of DMSO | 67.4 | 65.5 % of DMSO | 65.5 | 68.2 % of DMSO | 107.3 % of DMSO | 107.3 | 111.1 % of DMSO | 111.1 | 135.7 % of DMSO | 54.3 % of DMSO
6 | O=C(O)c1c2c(nc3ccccc13)C(=Cc1ccc3c(c1)OCCO3)CC2 [CBK297479] | 15.2 % of DMSO | 15.2 | 7.0 % of DMSO | 7.0 | 22.8 % of DMSO | 16.4 % of DMSO | 16.4 | 13.7 % of DMSO | 13.7 | 29.7 % of DMSO | 18.5 % of DMSO
7 | c1ccc2oc(CN3Cc4nc[nH]c4C[C@H]3c3nc(-c4ccc5c(c4)OCO5)no3)cc2c1 [CBK288998] | 72.8 % of DMSO | 72.8 | 66.3 % of DMSO | 66.3 | 89.6 % of DMSO | 93.1 % of DMSO | 93.1 | 78.1 % of DMSO | 78.1 | 112.2 % of DMSO | 68.4 % of DMSO
8 | CC(C)Nc1cncc(OCc2ccc(Cl)c(Cl)c2)n1 [CBK115653] | 44.3 % of DMSO | 44.3 | 30.6 % of DMSO | 30.6 | 102.4 % of DMSO | 31.9 % of DMSO | 31.8 | 19.5 % of DMSO | 19.5 | 104.9 % of DMSO | 41.7 % of DMSO
9 | CCCC(=O)c1ccc(S(=O)(=O)N2CCN(Cc3csc(-c4ccccc4)n3)CC2)cc1 [CBK063161] | 67.2 % of DMSO | 67.2 | 76.4 % of DMSO | 76.4 | 102.6 % of DMSO | 124.1 % of DMSO | 124.1 | 120.8 % of DMSO | 120.8 | 122.5 % of DMSO | 68.2 % of DMSO
10 | C[C@@H]1C(=O)O[C@H]2[C@H]1CC[C@@]1(C)Cc3sc(NC(=O)CCC(=O)O)nc3[C@@H](C)[C@H]21 [CBK289429] | 38.0 % of DMSO | 38.0 | 25.1 % of DMSO | 25.1 | 77.4 % of DMSO | 23.7 % of DMSO | 23.6 | 12.4 % of DMSO | 12.4 | 76.3 % of DMSO | 35.5 % of DMSO
11 | Cc1ccc(NC(=O)c2cnc(SCc3ccc(F)cc3)n(C)c2=O)cc1C [CBK287674] | 73.8 % of DMSO | 73.8 | 47.2 % of DMSO | 47.2 | 99.3 % of DMSO | 109.0 % of DMSO | 108.9 | 82.2 % of DMSO | 82.2 | 116.8 % of DMSO | 65.6 % of DMSO
12 | C[C@@H]1C(=O)O[C@H]2[C@H]1CC[C@@]1(C)Cc3sc(NC(=O)CN(C)C)nc3[C@@H](C)[C@H]21 [CBK289431] | 39.6 % of DMSO | 39.6 | 35.0 % of DMSO | 35.0 | 40.7 % of DMSO | 58.4 % of DMSO | 58.4 | 61.0 % of DMSO | 61.0 | 71.4 % of DMSO | 41.2 % of DMSO
